The results in this text go back to patent US8574547B2, “Photoacoustic probes and methods of imaging” (The Board of Trustees of the Leland Stanford Junior …, priority 2007, dated 2013).

The assay deals with T1, αvβ3 integrin (Homo sapiens, UniProt P05106+P06756).
T1 construct: endogenous in cells
Nature of the assay: Targeting ability: imaging inhibition of Alexa488 conjugated αvβ3 integrin antibody binding to cells. The conditions noted are these: cells incubated 1 hour with substance, then ½ hour with Alexa488 conjugated αvβ3 integrin antibody. Format: cell-based. The procedure:
FIGS. 7(1)-7(4) illustrate digital images of cells that were incubated for 1 hour with PBS (FIG. 7(1)), QSY-21 (FIG. 7(2)), […] (FIG. 7(3)), and […] (FIG. 7(4)). Then the cells were incubated for ½ hour with Alexa488 conjugated αvβ3 integrin antibody.
Targeting ability of the conjugate was tested by imaging inhibition of the avb3 intergrin antibody. Cells were incubated for 1 hour with PBS (FIG. 7(1)), QSY-21 (FIG. 7(2)), RGD-QSY21 (FIG. 7(3)), and RGD (FIG. 7(4)). Then the cells were incubated for ½ hour with Alexa488 conjugated αvβ3 integrin antibody.

T1 sequence (P06756 31-889 limits assumed): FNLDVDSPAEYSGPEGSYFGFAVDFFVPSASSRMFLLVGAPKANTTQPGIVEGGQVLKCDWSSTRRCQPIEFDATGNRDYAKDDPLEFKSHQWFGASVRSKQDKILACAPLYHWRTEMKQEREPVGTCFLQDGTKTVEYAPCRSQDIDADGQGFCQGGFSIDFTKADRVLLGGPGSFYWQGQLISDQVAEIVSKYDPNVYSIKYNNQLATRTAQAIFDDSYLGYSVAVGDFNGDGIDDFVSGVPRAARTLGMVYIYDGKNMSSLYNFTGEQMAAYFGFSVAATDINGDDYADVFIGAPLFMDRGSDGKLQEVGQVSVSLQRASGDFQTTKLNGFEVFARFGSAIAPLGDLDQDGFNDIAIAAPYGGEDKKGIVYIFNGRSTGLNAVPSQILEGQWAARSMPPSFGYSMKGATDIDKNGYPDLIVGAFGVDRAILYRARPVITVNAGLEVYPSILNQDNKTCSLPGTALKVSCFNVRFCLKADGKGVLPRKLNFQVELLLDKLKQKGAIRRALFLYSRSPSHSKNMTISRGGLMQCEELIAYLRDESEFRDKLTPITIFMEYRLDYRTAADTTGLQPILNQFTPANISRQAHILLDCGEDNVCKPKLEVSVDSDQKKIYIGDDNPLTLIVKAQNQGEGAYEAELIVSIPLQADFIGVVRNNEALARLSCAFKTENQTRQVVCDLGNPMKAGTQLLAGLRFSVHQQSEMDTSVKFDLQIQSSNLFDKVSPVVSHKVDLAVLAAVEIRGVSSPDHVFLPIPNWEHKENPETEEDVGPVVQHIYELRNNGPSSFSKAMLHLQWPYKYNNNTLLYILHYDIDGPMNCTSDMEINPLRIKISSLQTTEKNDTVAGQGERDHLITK
T1 sequence (P06756 891-1048 partner limits assumed): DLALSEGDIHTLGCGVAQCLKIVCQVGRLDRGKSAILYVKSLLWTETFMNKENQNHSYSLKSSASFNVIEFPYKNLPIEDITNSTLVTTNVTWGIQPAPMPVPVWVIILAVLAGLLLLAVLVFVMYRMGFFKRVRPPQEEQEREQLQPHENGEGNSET
T1 sequence (P05106 27-788): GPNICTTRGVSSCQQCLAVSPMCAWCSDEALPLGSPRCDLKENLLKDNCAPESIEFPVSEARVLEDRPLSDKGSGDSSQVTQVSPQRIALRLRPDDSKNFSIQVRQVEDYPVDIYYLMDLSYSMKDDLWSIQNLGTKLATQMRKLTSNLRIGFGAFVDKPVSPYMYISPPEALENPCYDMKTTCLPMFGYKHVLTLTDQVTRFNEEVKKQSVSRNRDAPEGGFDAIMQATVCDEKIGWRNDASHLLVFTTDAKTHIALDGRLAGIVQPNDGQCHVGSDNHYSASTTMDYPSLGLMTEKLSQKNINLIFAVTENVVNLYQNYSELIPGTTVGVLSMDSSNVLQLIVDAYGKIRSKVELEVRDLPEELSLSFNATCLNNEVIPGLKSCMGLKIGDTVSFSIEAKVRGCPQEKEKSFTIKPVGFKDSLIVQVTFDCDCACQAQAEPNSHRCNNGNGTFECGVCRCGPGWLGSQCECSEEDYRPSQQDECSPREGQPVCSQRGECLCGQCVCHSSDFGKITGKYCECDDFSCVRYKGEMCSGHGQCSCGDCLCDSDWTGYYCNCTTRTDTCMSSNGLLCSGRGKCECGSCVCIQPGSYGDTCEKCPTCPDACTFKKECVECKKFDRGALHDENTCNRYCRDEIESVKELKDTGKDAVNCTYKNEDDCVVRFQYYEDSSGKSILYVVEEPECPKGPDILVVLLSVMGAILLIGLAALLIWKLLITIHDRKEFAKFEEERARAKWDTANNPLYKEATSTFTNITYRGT

Take Arg-Gly-Asp [RGD]: the “inhibition of αvβ3 integrin antibody binding” value is listed as “inhibition of antibody binding”.
